In this assay the target is T1, Human TRPC6 (Homo sapiens, UniProt Q9Y210).
T1 construct: expressed in transfected cells
T1 sequence (Q9Y210 1-931): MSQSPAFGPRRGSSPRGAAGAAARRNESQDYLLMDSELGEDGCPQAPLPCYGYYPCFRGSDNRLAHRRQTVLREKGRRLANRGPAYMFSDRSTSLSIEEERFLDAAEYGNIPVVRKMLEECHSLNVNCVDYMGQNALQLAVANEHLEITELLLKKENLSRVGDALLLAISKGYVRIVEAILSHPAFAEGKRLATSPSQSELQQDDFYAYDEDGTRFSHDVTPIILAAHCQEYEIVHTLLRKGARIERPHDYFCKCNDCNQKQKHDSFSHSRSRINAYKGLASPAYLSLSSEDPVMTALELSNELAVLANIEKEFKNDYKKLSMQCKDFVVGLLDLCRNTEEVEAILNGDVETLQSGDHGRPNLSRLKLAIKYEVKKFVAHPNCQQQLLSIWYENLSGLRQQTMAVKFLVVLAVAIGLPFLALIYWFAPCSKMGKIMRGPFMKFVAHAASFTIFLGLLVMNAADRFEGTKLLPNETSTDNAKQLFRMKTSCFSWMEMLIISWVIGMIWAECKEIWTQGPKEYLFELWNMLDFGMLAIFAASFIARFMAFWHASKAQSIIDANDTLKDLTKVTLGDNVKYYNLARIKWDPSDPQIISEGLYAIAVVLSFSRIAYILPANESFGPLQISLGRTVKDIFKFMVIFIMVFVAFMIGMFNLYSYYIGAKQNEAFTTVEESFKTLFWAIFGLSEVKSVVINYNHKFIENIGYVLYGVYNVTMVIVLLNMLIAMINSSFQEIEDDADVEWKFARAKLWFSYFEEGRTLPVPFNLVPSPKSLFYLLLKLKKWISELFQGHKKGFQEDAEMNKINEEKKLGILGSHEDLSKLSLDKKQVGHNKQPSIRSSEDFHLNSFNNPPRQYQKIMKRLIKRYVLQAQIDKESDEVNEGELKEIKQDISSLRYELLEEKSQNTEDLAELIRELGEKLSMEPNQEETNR
Description: Evaluation of TRPC6 channel inhibitory activity (1), FLIPR Calcium 5 Assay Kit, OAG stimulation (Compound Nos. 1-1293). Type of assay: cell-based. An outline of the steps: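 Readout is pIC50 from four-parameter logistic fitting of inhibition of the OAG-evoked (30 μM final) fluorescence calcium signal. Human TRPC6 stable cells are dye-loaded with probenecid, and compound is applied 20 min ahead of agonist.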

Where [1] appears, read: Human TRPC6 stably-expressing cells, OAG 30 μM, FLIPR Calcium 5 Assay Kit, read-out: Inhibitory activity (pIC50 class) (converted).

Structures are written as SMILES. Where two headings read alike, the source gives them in different places.

Regarding `Cn1nc(C2CC2)cc1Oc1cc(C#N)ccc1-c1ccc(C(=O)CN)cc1` [Compound 214, 4-[4-(2-aminoacetyl)phenyl]-3-(5-cyclopropyl-2-methylpyrazol-3-yl)oxybenzonitrile], the IC50 under setting [1] was 10 to 1000 nM.

On to `Cn1nc(C2CC2)cc1Oc1cc(C#N)ccc1-c1ccc(C(O)CN)cc1` (stereo not shown) [Compound 215, 4-[4-(2-amino-1-hydroxyethyl)phenyl]-3-(5-cyclopropyl-2-methylpyrazol-3-yl)oxybenzonitrile], for which the IC50 under setting [1] was below 10 nM.

As for `Cn1nc(C2CC2)cc1Oc1cc(C#N)ccc1-c1nc(C(O)CN)cs1` (stereo not shown) [Compound 216, 4-[4-(2-amino-1-hydroxyethyl)-1,3-thiazol-2-yl]-3-(5-cyclopropyl-2-methylpyrazol-3-yl)oxybenzonitrile], the IC50 under setting [1] was 10 to 1000 nM. Regarding `Cn1nc(-c2ccccc2)cc1Oc1cc(C#N)ccc1-n1cc(N2CCNCC2=O)cn1` [Compound 217, 3-(2-methyl-5-phenylpyrazol-3-yl)oxy-4-[4-(2-oxopiperazin-1-yl)pyrazol-1-yl]benzonitrile], the IC50 under setting [1] is above 1000 nM. Turning to `Cn1nc(-c2ccccc2)cc1Oc1cc(C#N)ccc1-n1cc(N2CCCNCC2=O)cn1` [Compound 218, 3-(2-methyl-5-phenylpyrazol-3-yl)oxy-4-[4-(2-oxo-1,4-diazepan-1-yl)pyrazol-1-yl]benzonitrile], the IC50 under setting [1] is above 1000 nM.

For `Cn1nc(-c2ccccc2)cc1Oc1cc(C#N)ccc1-n1cc(N2CCNCCC2=O)cn1` [Compound 219, 3-(2-Methyl-5-phenylpyrazol-3-yl)oxy-4-[4-(7-oxo-1,4-diazepan-1-yl)pyrazol-1-yl]benzonitrile], the IC50 under setting [1] was 10 to 1000 nM. Take `Cn1nc(C(F)(F)F)cc1Oc1cc(C#N)ccc1-n1cc(N2CCNCC2=O)cn1` [Compound 220, 3-[2-methyl-5-(trifluoromethyl)pyrazol-3-yl]oxy-4-[4-(2-oxopiperazin-1-yl)pyrazol-1-yl]benzonitrile]: the IC50 under setting [1] was above 1000 nM. Turning to `Cc1nc(Oc2cc(C#N)ccc2-n2cc(C3=CCNCC3)cn2)cc(C2CCCC2)n1` [Compound 221, 3-(6-cyclopentyl-2-methylpyrimidin-4-yl)oxy-4-[4-(1,2,3,6-tetrahydropyridin-4-yl)pyrazol-1-yl]benzonitrile], the IC50 is 10 to 1000 nM. As to `Cc1nc(Oc2cc(C#N)ccc2-c2nc([C@@H](O)CN)cs2)cc(-c2ccccc2)n1` [Compound 222, 4-[4-[(1S)-2-amino-1-hydroxyethyl]-1,3-thiazol-2-yl]-3-(2-methyl-6-phenylpyrimidin-4-yl)oxybenzonitrile], the IC50 under setting [1] is 10 to 1000 nM. For `Cc1nc(Oc2cc(C#N)ccc2-c2nc([C@H](O)CN)cs2)cc(-c2ccccc2)n1` [Compound 223, 4-[4-[(1R)-2-amino-1-hydroxyethyl]-1,3-thiazol-2-yl]-3-(2-methyl-6-phenylpyrimidin-4-yl)oxybenzonitrile], the IC50 under setting [1] is 10 to 1000 nM.

As to `Cc1nc(Oc2cc(C#N)ccc2-c2ncc(C(O)CN)s2)cc(-c2ccccc2)n1` (stereo not shown) [Compound 224, 4-[5-(2-amino-1-hydroxyethyl)-1,3-thiazol-2-yl]-3-(2-methyl-6-phenylpyrimidin-4-yl)oxybenzonitrile], the IC50 under setting [1] is 10 to 1000 nM.

Regarding `Cn1nc(-c2ccccc2)cc1Oc1cc(C#N)ccc1-c1ncc(C(O)CN)s1` (stereo not shown) [Compound 225, 4-[5-(2-amino-1-hydroxyethyl)-1,3-thiazol-2-yl]-3-(2-methyl-5-phenylpyrazol-3-yl)oxybenzonitrile], the IC50 under setting [1] is below 10 nM.

`Cc1cc(Oc2cc(C#N)ccc2-n2cc(C(O)CN)cn2)cc(-c2ccccc2)n1` (stereo not shown) [Compound 226, 4-[4-(2-amino-1-hydroxyethyl)pyrazol-1-yl]-3-(2-methyl-6-phenylpyridin-4-yl)oxybenzonitrile]: under setting [1], the IC50 is below 10 nM. For `Cn1nc(C2CCOCC2)cc1Oc1cc(C#N)ccc1-c1ccc(CCN)cn1` [Compound 227, 4-[5-(2-aminoethyl)pyridin-2-yl]-3-[2-methyl-5-(oxan-4-yl)pyrazol-3-yl]oxybenzonitrile], the IC50 under setting [1] is below 10 nM. For `CC(C)Cc1cc(Oc2cc(C#N)ccc2-c2ccc(CCN)cn2)n(C)n1` [Compound 228, 4-[5-(2-aminoethyl)pyridin-2-yl]-3-[2-methyl-5-(2-methylpropyl)pyrazol-3-yl]oxybenzonitrile], the IC50 under setting [1] was below 10 nM. For the compound `CC(C)c1cc(Oc2cc(C#N)ccc2-c2ccc(CCN)cn2)n(C)n1` [Compound 229, 4-[5-(2-aminoethyl)pyridin-2-yl]-3-(2-methyl-5-propan-2-ylpyrazol-3-yl)oxybenzonitrile], the IC50 under setting [1] is below 10 nM. Turning to `CCCc1cc(Oc2cc(C#N)ccc2-c2ccc(CCN)cn2)n(C)n1` [Compound 230, 4-[5-(2-aminoethyl)pyridin-2-yl]-3-(2-methyl-5-propylpyrazol-3-yl)oxybenzonitrile], the IC50 under setting [1] is below 10 nM. Regarding `CNC[C@H](O)c1cnn(-c2ccc(C#N)cc2Oc2cc(-c3ccccc3)nc(C)n2)c1` [Compound 231, 4-[4-[(1R)-1-hydroxy-2-(methylamino)ethyl]pyrazol-1-yl]-3-(2-methyl-6-phenylpyrimidin-4-yl)oxybenzonitrile], the IC50 under setting [1] is below 10 nM.

As for `Cc1nc(Oc2cc(C#N)ccc2-n2cc([C@@H](O)CN)cn2)cc(N2CCCC2)n1` [Compound 232, 4-[4-[(1R)-2-amino-1-hydroxyethyl]pyrazol-1-yl]-3-(2-methyl-6-pyrrolidin-1-ylpyrimidin-4-yl)oxybenzonitrile], under setting [1], the IC50 is below 10 nM. Same read-out and setting: the same measure for `Cc1nc(Oc2cc(C#N)ccc2-n2cc([C@@H](O)CN)cn2)cc(N2CCCCC2)n1` [Compound 233, 4-[4-[(1R)-2-amino-1-hydroxyethyl]pyrazol-1-yl]-3-(2-methyl-6-piperidin-1-ylpyrimidin-4-yl)oxybenzonitrile]: below 10 nM; for `Cc1nc(Oc2cc(C#N)ccc2-n2cc([C@@H](O)CN)cn2)cc(N2CCC(C(C)C)CC2)n1` [Compound 234, 4-[4-[(1R)-2-amino-1-hydroxyethyl]pyrazol-1-yl]-3-[2-methyl-6-(4-propan-2-ylpiperidin-1-yl)pyrimidin-4-yl]oxybenzonitrile]: above 1000 nM.

In the case of `Cc1nc(Oc2cc(C#N)ccc2-n2cc([C@@H](O)CN)cn2)cc(N2CCCC(C)(C)C2)n1` [Compound 235, 4-[4-[(1R)-2-amino-1 hydroxyethyl]pyrazol-1-yl]-3-[6-(3,3-dimethylpiperidin-1-yl)-2-methylpyrimidin-4-yl]oxybenzonitrile], the IC50 under setting [1] is 10 to 1000 nM. `Cc1nc(Oc2cc(C#N)ccc2-n2cc([C@@H](O)CN)cn2)cc(N2CC(F)(F)C2)n1` [Compound 236, 4-[4-[(1R)-2-amino-1-hydroxyethyl]pyrazol-1-yl]-3-[6-(3,3-difluoroazetidin-1-yl)-2-methylpyrimidin-4-yl]oxybenzonitrile]: under setting [1], the IC50 is 10 to 1000 nM. The same measure, in the same setting: the same measure for `Cn1nc(C2CCC2)cc1Oc1cc(C#N)ccc1-c1ccc(CCN)cn1` [Compound 237, 4-[5-(2-aminoethyl)pyridin-2-yl]-3-(5-cyclobutyl-2-methylpyrazol-3-yl)oxybenzonitrile]: below 10 nM. Turning to `Cn1nc(C2CCC2)cc1Oc1cc(C#N)ccc1-c1ncc(C(O)CN)s1` (stereo not shown) [Compound 238, 4-[5-(2-amino-1-hydroxyethyl)-1,3-thiazol-2-yl]-3-(5-cyclobutyl-2-methylpyrazol-3-yl)oxybenzonitrile], under setting [1], the IC50 is below 10 nM.

Source of the values: patent US20230167073A1 (Teijin Pharma Limited, priority 2020, published 2023).
